# From US20240352426A1, “Accelerated Protocol for the Differentiation of Podocytes from Human Pluripotent Stem Cells” (Vanderbilt University, priority 2021, published 2024)
# Tested on: iPSC-derived primitive streak cells
# Experiment: Flow cytometry of differentiation markers after CHIR99021 treatment of primitive streak cells
# Format: cell-based, human
# Procedure: iPSCs seeded onto Geltrex-coated plates at a density of 100,000 cells/cm^2 were treated with mTesR media with 10 μM ROCKi for the first 24 h. On Day 0, cells were treated with base media (DMEM/F12 with GlutaMax, 1×B27) supplemented with primitive streak induction factors including 100 ng/ml Activin A and 3 μM CHIR99021. On Day 2, cells were treated with base media including 8 μM CHIR99021 to induce intermediate mesoderm until Day 5, followed by treatment with base medium containing 200 ng/ml FGF9 and 1 mg/ml Heparin (Sigma-Aldrich, St. Louis, Missouri). On Day 7, to induce the nephron progenitors, the cells were dissociated using Accutase and replated (1:4) onto laminin-511-coated plates. The podocyte phenotype was induced using base media supplemented with 100 ng/ml BMP7, 100 ng/ml Activin A, 50 ng/ml VEGF, 3 μM CHIR99021, and 0.1 μM RA and cells were assayed on Day 12. The detailed methods for deriving the podocytes was carefully described elsewhere (Bejoy J, et al. STAR protocols. 2021 2 (4): 100898).
# To evaluate the expression of proteins of interest quantitatively, the cells were harvested by Accutase treatment and analyzed by flow cytometry. […] The cells were acquired with BD FACSCanto II flow cytometer (BD Biosciences, Beckton, New Jersey) and analyzed against isotype controls using FlowJo software. […]
structure (smiles),measurement,setting,value
Cc1c[nH]c(-c2cnc(NCCNc3ccc(C#N)cn3)nc2-c2ccc(Cl)cc2Cl)n1 [CHIR99021],population of MIXL1+ cells (flow cytometry),8 μM CHIR99021 for 2-3 days on primitive streak cells,26.7%
same,cells expressing PAX8 (flow cytometry),"day 5, after 8 μM CHIR99021, intermediate mesoderm stage",95.9%
